Laboratory results reported in patent US10093629B2, “Heterocyclic compounds and their use as retinoid-related orphan receptor (ROR) gamma-T inhibitors” (Takeda Pharmaceutical Company Limited, priority 2014, dated 2018).
Where two headings read alike, the source gives them in different places.

Experiments:
RORγt [1] = target: T1, RORγt (Homo sapiens, UniProt P51449); assay: RORγt binding test using fluorescent-labeled synthetic ligand (TR-FRET); settings: for inhibition at 1 µM: read-out: binding inhibitory rate of fluorescent-labeled synthetic ligand to RORγt at test compound 1 μM
T1 sequence (P51449 1-497 isoform P51449-2): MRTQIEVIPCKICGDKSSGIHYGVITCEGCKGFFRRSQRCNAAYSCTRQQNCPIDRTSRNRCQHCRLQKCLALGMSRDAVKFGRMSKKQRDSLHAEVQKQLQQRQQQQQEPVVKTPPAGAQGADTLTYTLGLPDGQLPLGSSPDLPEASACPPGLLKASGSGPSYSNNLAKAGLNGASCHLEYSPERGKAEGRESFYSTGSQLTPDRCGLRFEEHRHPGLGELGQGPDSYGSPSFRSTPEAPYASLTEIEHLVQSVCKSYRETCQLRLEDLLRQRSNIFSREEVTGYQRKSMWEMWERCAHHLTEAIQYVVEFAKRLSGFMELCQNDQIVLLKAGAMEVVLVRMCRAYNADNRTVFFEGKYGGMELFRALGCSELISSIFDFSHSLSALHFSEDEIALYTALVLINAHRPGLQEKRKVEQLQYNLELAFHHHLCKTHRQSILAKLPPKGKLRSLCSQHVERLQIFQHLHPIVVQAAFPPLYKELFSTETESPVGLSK
Experimental: RORγt Binding Test using Fluorescent-Labeled Synthetic Ligand
The binding activity of the test compound to RORγt was measured by a time resolved fluorescence resonance energy transfer method (TR-FRET) utilizing histidine-tagged RORγt, fluorescent-labeled synthetic ligand and terbium-labeled anti-histidine tag antibody (Invitrogen). First, a test compound diluted with an assay buffer (20 mM Tris-HCl (pH 7.5), 100 mM NaCl, 1 mM DTT, 0.1% BSA) was added to a 384 well plate by 3 μL. Then, RORγt diluted with an assay buffer to 240 nM was added by 3 μL, after which fluorescent-labeled synthetic ligand diluted with the assay buffer to 12 μM was added by 3 μL, and the mixture was stood at room temperature for 20 min. Thereafter, a terbium-labeled anti-histidine tag antibody diluted with the assay buffer to 8 nM was added by 3 μL. The mixture was stood at room temperature for 20 min, and fluorescence intensity (excitation wavelength 320 nm, fluorescence wavelength 520 nm, delay time 100 microseconds) was measured by Envision (PerkinElmer).

RORγt [2] = target: T1, RORγt; assay: Cofactor recruitment test (Alpha Screen, biotinylated SRC-1 peptide); format: biochemical; settings: for inhibition at 1 µM: read-out: signal value inhibitory rate at test compound 1 μM
Experimental: Cofactor Recruitment Test
Cofactor recruitment test was performed by Alpha Screen (Histidine Detection Kit, PerkinElmer) method. First, a test compound was diluted with an assay buffer (50 mM Tris-HCl (pH 7.5), 50 mM KCl, 1 mM DTT, 0.1% BSA) and added to a 384 well plate by 5 μL. […] The mixture was stood in a dark place for 1 hr, and the signal value was measured by Envision (PerkinElmer).

RORγt [3] = target: T1, RORγt; assay: Jurkat reporter test (human IL-17 ROR response element luciferase, RORγt vector); format: cell-based; settings: Jurkat cells; for inhibition at 3 µM: test compound 3 μM, read-out: luminescence level inhibitory rate at test compound 3 μM
Experimental: The Jurkat cells used for the reporter test were cultured in a culture medium (RPMI (Invitrogen), 10% FCS (AusGeneX), 100 U/mL penicillin, 100 μg/mL streptomycin). On the day of the test, 4×10^7 cells were recovered by a centrifugal operation (1000 rpm, 5 min.) and suspended in PBS (phosphate buffered saline) (Invitrogen). Thereafter, the cells were recovered again by a centrifugal operation, and suspended in 2 mL of R buffer (NEON transfection kit, Invitrogen). […] Gene transfer was performed by Electroporation apparatus (NEON, Invitrogen) under the conditions of pulse voltage 1350 V, interval 10 milliseconds, number of times 3. The cells after gene transfer were suspended in 40 mL of a reaction medium (RPMI, 10% Lipid reduced FCS (HyClone), 10 mM HEPES (pH 7.5), 100 U/mL penicillin, 100 μg/mL streptomycin, 5 μM lovastatin), and plated in a 96 well plate by 90 μL. A test compound diluted with the reaction medium was added by 10 μL, and the cells were cultured overnight in an incubator. Bright-Glo (Promega) was added by 100 μL, and the mixture was stirred at room temperature for 10 min, and the luminescence level was measured by Envision (PerkinElmer).

Row | Compound | inhibition at 1 µM (RORγt [1]; test compound 1 μM) [%] | inhibition at 1 µM (RORγt [2]; test compound 1 μM) [%] | inhibition at 3 µM (RORγt [3]; Jurkat) [%] | inhibition at 1 µM (RORγt [1]) [%] | inhibition at 1 µM (RORγt [2]) [%] | inhibition at 3 µM (RORγt [3]) [%] | further results
1 | COc1ccc2c(c1)CCN(C(=O)C1CC1C(=O)O)[C@H]2C(=O)Nc1cc(F)c([Si](C)(C)C)c(F)c1 (single isomer, unassigned) [Example 3] | – | – | – | 102 | 84 | 97 | –
2 | COc1ccc2c(c1)CCN(C(=O)[C@H]1C[C@H](C(=O)O)C1)[C@H]2C(=O)Nc1cc(F)c([Si](C)(C)C)c(F)c1 [Example 12, trans-3-(((1R)-1-((3,5-difluoro-4-(trimethylsilyl)phenyl)carbamoyl)-6-methoxy-3,4-dihydroisoquinolin-2(1H)-yl)carbonyl)cyclobutanecarboxylic acid] | – | – | – | 102 | 91 | 99 | –
3 | COc1ccc2c(n1)CCN(C(=O)[C@@H]1C[C@H]1CC(=O)O)[C@H]2C(=O)Nc1cc(F)c([Si](C)(C)C)c(F)c1 [Example 14, ((1S,2R)-2-(((5R)-5-((3,5-difluoro-4-(trimethylsilyl)phenyl)carbamoyl)-2-methoxy-7,8-dihydro-1,6-naphthyridin-6(5H)-yl)carbonyl)cyclopropyl)acetic acid] | – | – | – | 101 | 86 | 100 | –
4 | CCOc1ccc2c(c1)CCN(C(=O)[C@H]1C[C@@H](CC(=O)O)C1)[C@H]2C(=O)Nc1cc(F)c(C(C)(C)COC)c(F)c1 [Example 17, (cis-3-(((1R)-1-((3,5-difluoro-4-(1-methoxy-2-methylpropan-2-yl)phenyl)carbamoyl)-6-ethoxy-3,4-dihydroisoquinolin-2(1H)-yl)carbonyl)cyclobutyl)acetic acid] | 101 | 85 | 99 | – | – | – | –
5 | COc1ccc2c(c1)CCN(C(=O)[C@H]1C[C@H](CC(=O)O)C1)[C@H]2C(=O)Nc1cc(F)c([Si](C)(C)C)c(F)c1 [Example 27, (trans-3-(((1R)-1-((3,5-difluoro-4-(trimethylsilyl)phenyl)carbamoyl)-6-methoxy-3,4-dihydroisoquinolin-2(1H)-yl)carbonyl)cyclobutyl)acetic acid] | – | – | – | 102 | 91 | 103 | –
6 | COc1ccc2c(c1)CCN(C(=O)[C@@H]1C[C@H]1CC(=O)O)[C@H]2C(=O)Nc1cc(F)c([Si](C)(C)C)c(F)c1 [Example 30, ((1S,2R)-2-(((1R)-1-((3,5-difluoro-4-(trimethylsilyl)phenyl)carbamoyl)-6-methoxy-3,4-dihydroisoquinolin-2(1H)-yl)carbonyl)cyclopropyl)acetic acid] | – | – | – | 101 | 90 | 100 | –
7 | COc1ccc2c(c1)CCN(C(=O)[C@H]1C[C@H](CC(=O)O)C1)[C@H]2C(=O)Nc1ccc([Si](C)(C)C)c(F)c1 [Example 34, (trans-3-(((1R)-1-((3-fluoro-4-(trimethylsilyl)phenyl)carbamoyl)-6-methoxy-3,4-dihydroisoquinolin-2(1H)-yl)carbonyl)cyclobutyl)acetic acid] | – | – | – | 102 | 88 | 100 | –
8 | COCc1ccc2c(c1)CCN(C(=O)[C@H]1C[C@@H](CC(=O)O)C1)[C@H]2C(=O)Nc1cc(F)c2c(c1)CCC2(C)C [Example 40-A, monopotassium (cis-3-(((1R)-1-((7-fluoro-1,1-dimethyl-2,3-dihydro-1H-inden-5-yl)carbamoyl)-6-(methoxymethyl)-3,4-dihydroisoquinolin-2(1H)-yl)carbonyl)cyclobutyl)acetate acetonitrile solvate] | – | – | – | – | – | – | binding inhibitory rate of fluorescent-labeled synthetic ligand to RORγt at test compound 1 μM (RORγt [1]; test compound 1 μM, 1 µM): 102%; signal value inhibitory rate at test compound 1 μM (RORγt [2]; test compound 1 μM, 1 µM): 87%; luminescence level inhibitory rate at test compound 3 μM (RORγt [3]; 3 µM): 104%

Continued, in another order:

Row | inhibition at 1 µM (RORγt [1]; test compound 1 μM) [%] | inhibition at 1 µM (RORγt [2]; test compound 1 μM) [%] | inhibition at 3 µM (RORγt [3]; Jurkat) [%] | Compound | inhibition at 1 µM (RORγt [1]) [%] | inhibition at 1 µM (RORγt [2]) [%] | inhibition at 3 µM (RORγt [3]) [%] | further results
9 | 102 | 83 | 99 | COCC(C)(C)c1c(F)cc(NC(=O)[C@H]2c3ccc(OC)cc3CCN2C(=O)[C@H]2C[C@@H](CC(=O)O)C2)cc1F [Example 35, (cis-3-(((1R)-1-((3,5-difluoro-4-(1-methoxy-2-methylpropan-2-yl)phenyl)carbamoyl)-6-methoxy-3,4-dihydroisoquinolin-2(1H)-yl)carbonyl)cyclobutyl)acetic acid] | – | – | – | –
10 | 102 | 72 | 102 | COc1ccc2c(n1)CCN(C(=O)[C@H]1C[C@@H](C(=O)OCc3ccccc3)C1)[C@H]2C(=O)Nc1cc(F)c2c(c1)CCC2(C)C [Example 36, benzyl cis-3-(((5R)-5-((7-fluoro-1,1-dimethyl-2,3-dihydro-1H-inden-5-yl)carbamoyl)-2-methoxy-7,8-dihydro-1,6-naphthyridin-6(5H)-yl)carbonyl)cyclobutanecarboxylate] | – | – | – | –
11 | 102 | 61 | 102 | COc1ccc2c(n1)CCN(C(=O)[C@H]1C[C@@H](CC(=O)OCc3oc(=O)oc3C)C1)[C@H]2C(=O)Nc1cc(F)c2c(c1)CCC2(C)C [Example 38, (5-methyl-2-oxo-1,3-dioxol-4-yl)methyl (cis-3-(((5R)-5-((7-fluoro-1,1-dimethyl-2,3-dihydro-1H-inden-5-yl)carbamoyl)-2-methoxy-7,8-dihydro-1,6-naphthyridin-6(5H)-yl)carbonyl)cyclobutyl)acetate] | – | – | – | –
12 | 101 | 63 | 103 | CCOC(=O)C[C@H]1C[C@@H](C(=O)N2CCc3nc(OC)ccc3[C@@H]2C(=O)Nc2cc(F)c3c(c2)CCC3(C)C)C1 [Example 39, ethyl (cis-3-(((5R)-5-((7-fluoro-1,1-dimethyl-2,3-dihydro-1H-inden-5-yl)carbamoyl)-2-methoxy-7,8-dihydro-1,6-naphthyridin-6(5H)-yl)carbonyl)cyclobutyl)acetate] | – | – | – | –
13 | 102 | 61 | 102 | COc1ccc2c(n1)CCN(C(=O)[C@H]1C[C@@H](C(=O)OCc3oc(=O)oc3C)C1)[C@H]2C(=O)Nc1cc(F)c2c(c1)CCC2(C)C [Example 44, (5-methyl-2-oxo-1,3-dioxol-4-yl)methyl cis-3-(((5R)-5-((7-fluoro-1,1-dimethyl-2,3-dihydro-1H-inden-5-yl)carbamoyl)-2-methoxy-7,8-dihydro-1,6-naphthyridin-6(5H)-yl)carbonyl)cyclobutanecarboxylate] | – | – | – | –
14 | 101 | 66 | 101 | COC(=O)C[C@H]1C[C@@H](C(=O)N2CCc3nc(OC)ccc3[C@@H]2C(=O)Nc2cc(F)c3c(c2)CCC3(C)C)C1 [Example 45, methyl (cis-3-(((5R)-5-((7-fluoro-1,1-dimethyl-2,3-dihydro-1H-inden-5-yl)carbamoyl)-2-methoxy-7,8-dihydro-1,6-naphthyridin-6(5H)-yl)carbonyl)cyclobutyl)acetate] | – | – | – | –
15 | 102 | 69 | 102 | COc1ccc2c(n1)CCN(C(=O)[C@H]1C[C@@H](C(=O)OC)C1)[C@H]2C(=O)Nc1cc(F)c2c(c1)CCC2(C)C [Example 46, methyl cis-3-(((5R)-5-((7-fluoro-1,1-dimethyl-2,3-dihydro-1H-inden-5-yl)carbamoyl)-2-methoxy-7,8-dihydro-1,6-naphthyridin-6(5H)-yl)carbonyl)cyclobutanecarboxylate] | – | – | – | –
